Data from PubChem BioAssay (NCI).
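Five compound concentrations were applied to cells in 96-well plates for 48 hours; endpoints were derived by simple linear interpolation of the resulting dose-response curve. TGI is the concentration that stops growth completely.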

Columns and labels:
Test in all cases: NCI anticancer screen, dose series, 48 h
HL-60(TB) leukemia = test system: HL-60(TB) leukemia
MDA-MB-231 breast = test system: MDA-MB-231 breast
RPMI-8226 leukemia = test system: RPMI-8226 leukemia
A549 NSCLC = test system: A549 NSCLC
SK-MEL-28 melanoma = test system: SK-MEL-28 melanoma
DU-145 prostate = test system: DU-145 prostate
HOP-92 NSCLC = test system: HOP-92 NSCLC
UACC-257 melanoma = test system: UACC-257 melanoma
SW-620 colon = test system: SW-620 colon
CAKI-1 renal = test system: CAKI-1 renal
HOP-62 NSCLC = test system: HOP-62 NSCLC
LOX IMVI melanoma = test system: LOX IMVI melanoma
CCRF-CEM leukemia = test system: CCRF-CEM leukemia
786-0 renal = test system: 786-0 renal
UACC-62 melanoma = test system: UACC-62 melanoma
SF-539 CNS = test system: SF-539 CNS
PC-3 prostate = test system: PC-3 prostate
EKVX NSCLC = test system: EKVX NSCLC
COLO 205 colon = test system: COLO 205 colon
HCC-2998 colon = test system: HCC-2998 colon
MOLT-4 leukemia = test system: MOLT-4 leukemia
ACHN renal = test system: ACHN renal
SF-268 CNS = test system: SF-268 CNS
M14 melanoma = test system: M14 melanoma
RXF 393 renal = test system: RXF 393 renal
T-47D breast = test system: T-47D breast
NCI/ADR-RES ovarian = test system: NCI/ADR-RES ovarian
HT29 colon = test system: HT29 colon
HS 578T breast = test system: HS 578T breast
NCI-H23 lung = test system: NCI-H23 lung
MALME-3M melanoma = test system: MALME-3M melanoma
KM12 colon = test system: KM12 colon
MDA-N = test system: MDA-N
SN12C renal = test system: SN12C renal
NCI-H460 lung = test system: NCI-H460 lung
SK-OV-3 ovarian = test system: SK-OV-3 ovarian
A498 renal = test system: A498 renal
MCF7 breast = test system: MCF7 breast
TK-10 renal = test system: TK-10 renal
HCT-15 colon = test system: HCT-15 colon
HCT-116 colon = test system: HCT-116 colon
UO-31 renal = test system: UO-31 renal
OVCAR-8 ovarian = test system: OVCAR-8 ovarian
OVCAR-3 ovarian = test system: OVCAR-3 ovarian
MDA-MB-435 = test system: MDA-MB-435
NCI-H226 lung = test system: NCI-H226 lung
SR leukemia = test system: SR leukemia
U251 CNS = test system: U251 CNS
OVCAR-5 ovarian = test system: OVCAR-5 ovarian
K-562 leukemia = test system: K-562 leukemia
SNB-75 CNS = test system: SNB-75 CNS
SK-MEL-5 melanoma = test system: SK-MEL-5 melanoma
SF-295 CNS = test system: SF-295 CNS
SNB-19 CNS = test system: SNB-19 CNS
OVCAR-4 ovarian = test system: OVCAR-4 ovarian
SK-MEL-2 melanoma = test system: SK-MEL-2 melanoma
IGROV1 ovarian = test system: IGROV1 ovarian

Measured: TGI

Nc1ccc(/C=C/c2ccc3cccnc3c2)cc1
not listed: OVCAR-4 ovarian | SK-MEL-2 melanoma | IGROV1 ovarian
> 100 µM: all other assays above

CCOC(=O)c1csc(NC(=O)CCN2CCCC2)n1
not listed: 786-0 renal | SF-268 CNS | HS 578T breast | MALME-3M melanoma | SN12C renal | A498 renal | HCT-116 colon
> 100 µM: all other assays above
